Measured values as given in patent US20240408211A1, “COMPOSITIONS AND METHODS OF AMELIORATING AVERSIVENESS OF AVERSIVE STIMULI BY INHIBITION OF PURINERGIC RECEPTORS” (Monell Chemical Senses Center, priority 2021, published 2024).
Like-named read-outs stand apart in the source and are kept apart here.

What was measured:
[1] = system: P2X3/P2X2/3 receptors on bladder afferent nerves; settings: rats; cited from earlier work
P2X2/3 = molecular target: T1, P2X2/3 (Homo sapiens, UniProt P56373+Q9UBL9); experiment: P2X2/3 stable HEK293 cell lines responding to α,β-meATP (screening assay); format: cell-based; settings: P2X2/3 stable HEK293 lines; FIGS. 8A and 8B
T1 construct: expressed in transfected cells; host or cells: HEK293
T1 sequence (Q9UBL9 1-471): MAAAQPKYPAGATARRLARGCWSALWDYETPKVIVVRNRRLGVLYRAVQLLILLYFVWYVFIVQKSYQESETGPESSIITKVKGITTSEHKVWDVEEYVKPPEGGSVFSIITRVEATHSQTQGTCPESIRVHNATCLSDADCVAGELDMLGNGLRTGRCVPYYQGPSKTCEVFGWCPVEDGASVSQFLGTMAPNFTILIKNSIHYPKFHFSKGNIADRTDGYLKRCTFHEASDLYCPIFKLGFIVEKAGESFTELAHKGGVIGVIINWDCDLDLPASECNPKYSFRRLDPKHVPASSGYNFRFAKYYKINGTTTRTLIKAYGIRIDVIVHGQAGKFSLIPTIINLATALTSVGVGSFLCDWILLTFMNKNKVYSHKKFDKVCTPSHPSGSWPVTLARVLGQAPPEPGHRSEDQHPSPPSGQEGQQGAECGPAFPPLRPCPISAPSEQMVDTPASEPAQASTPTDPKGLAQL
T1 sequence (P56373 1-397): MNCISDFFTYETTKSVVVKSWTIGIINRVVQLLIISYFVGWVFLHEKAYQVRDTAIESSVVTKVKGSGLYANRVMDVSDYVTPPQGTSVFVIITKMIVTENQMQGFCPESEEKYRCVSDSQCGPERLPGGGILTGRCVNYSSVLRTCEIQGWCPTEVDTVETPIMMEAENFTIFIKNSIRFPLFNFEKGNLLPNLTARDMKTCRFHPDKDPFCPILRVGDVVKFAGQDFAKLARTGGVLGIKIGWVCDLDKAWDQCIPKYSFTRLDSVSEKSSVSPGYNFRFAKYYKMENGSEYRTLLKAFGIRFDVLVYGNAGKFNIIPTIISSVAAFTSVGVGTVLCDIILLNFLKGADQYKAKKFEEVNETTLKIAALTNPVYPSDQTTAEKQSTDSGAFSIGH
Experimental: In this study, we built stable cell lines expressing P2X2/3 in HEK293 cells via transfection with either P2X2-Neo or P2X3-Zeo constructs, following which selection was performed using Zeocin, G418. Picked clones were grown out from single cells (cultured continuously in the presence of Zeocin and G418) using cloning rings.
The resulted stable cell lines are used for characterizing putative taste-blockers.

mice = settings: intraperitoneal administration; cited from earlier work
[2] = solutions (2 mg/mL) and suspensions in acidic media; room temperature; cited from earlier work
[3] = intraperitoneal, cited from earlier work
chorda tympani nerve = settings: cited from earlier work
[4] = cited from earlier work
nodose C-fiber = settings: guinea pigs; cited from earlier work

Experimental for humans: In some experiments, we used a regimen of two 1-minute rinses with 500 μM AF-353 composition (i.e., oral topical administration).
In this study, we tested an AF-353 composition in humans as an oral rinse after receiving IRB approval for its use. First, we tested rinsing 100 μM (0.04 mg/mL) orally for 2 minutes as 4×30 sec rinses with expectoration. We tested before and after sour, bitter, sweet, and salty solutions (quinine HCl, NaCl, Praziquantal, sucrose, CO2).
Next, we tested rinsing 500 μM (0.2 mg/mL) AF-353 for two minutes, in 2×1 min increment rinses with expectoration.

response of the stable cell lines (P2X2/3): dose-dependent manner
Structure (SMILES): COc1cc(C(C)C)c(Oc2cnc(N)nc2N)cc1I [AF-353, 5-[5-iodo-4-methoxy-2-(1-methylethyl)phenoxy]-2,4-pyrimidinediamine]
activity mediated by P2X3/P2X2/3 receptors on bladder afferent nerves [1]: counteracts
preference for SC-45647 shown by vehicle-administered mice (mice): eliminated
physically and chemically stable for [2]: at least 4 weeks
plasma concentration ([3]; 0.25 mg/kg): 1.3 µM
plasma concentration ([3]; 6 mg/kg): 44 µM
chorda tympani nerve responses elicited by orally applied taste stimuli (chorda tympani nerve; 1.0 or 1.1 mM flowed over the anterior tongue for 10 min, at 10 and 30 min after application): eliminated
chorda tympani nerve responses to all tastants (chorda tympani nerve; intraperitoneal injection, 6 mg/kg): abolished
decrease of chorda tympani nerve responses (chorda tympani nerve; intraperitoneal, 0.25 mg/kg): ~50%
half-life ([4]; in rat): 1.63 h
oral bioavailability ([4]; rat, in vivo, po): high
CNS penetration ([4]; rat, in vivo): good
bronchoconstriction-induced nodose C-fiber discharge (nodose C-fiber): blocks
intensity of sour, bitter, sweet and salty solutions after treatment (moderate before treatment) (humans; 100 μM (0.04 mg/mL), 2 minutes as 4×30 sec rinses, four participants): mild
tastes after treatment (humans; 500 μM (0.2 mg/mL), 2×1 min rinses with expectoration): eliminated
recovery from abolishment of taste (humans; 500 μM rinse, at 2 hours after rinsing): 100 % of normal
recovery of taste perception faster in some subjects (humans; 500 μM rinse, some subjects): about 20 minutes
ability to taste fully recovered after (humans; after oral rinse): 1.5 to 3 h
recovery of the ability to taste began (humans; after oral rinse): ≤ 60 min
taste blockade (sweet, sour, salty, bitter (Quinine and Praziquantel)) (humans; topical oral rinse and expectoration, 4 people): completely blocked taste
negative side effects (oral numbing, tingling, strange oral sensations) (humans; topical oral rinse in humans): did not cause numbness or any strange sensations
block of aroma or carbonation irritation (humans; topical oral rinse, 4 people): did not block
